Converted amounts (≈) assume the structure as drawn. Bridge positions count the residues as written; N and C are the ends. Peptide text beside a SMILES is read from it.

One series deals with E. coli K12. Kind of series: microbe, parasite or virus in culture. To be noted: K12. It counts as cell-based, Escherichia coli. On the procedure:
(§1) To determine the antimicrobial activity of the new antimicrobial peptides, HG2 and HG4, their minimum inhibitory concentrations (MICs) were determined by broth microdilution method[51] in cation adjusted Mueller Hinton broth (MHB) following the International Organisation for Standardisation (ISO) 20776-1 standard for MIC testing using a final bacterial inoculum of 5 × 10^5 CFU/ml[52]. […] The peptides dissolved in sterile distilled water were added to bacteria culture and incubated overnight at appropriate conditions. The MICs of the peptides and comparator antibiotics were recorded after 18–24 h. The minimum bactericidal concentrations (MBCs) were also determined and were taken as the lowest concentration of the antimicrobial that prevented the growth of bacterial cells after the subculture of cells (from MIC treatment) onto antibiotic-free media.

For the next series, the system named is S. aureus EMRSA-15. Kind of series: microbe, parasite or virus in culture. The class given is cell-based, Staphylococcus aureus. The following applies: EMRSA-15. As to the method: as §1
Series [1] deals with S. aureus USA300 BAA-1717. Description: microbe, parasite or virus in culture. It counts as cell-based, Staphylococcus aureus. The following applies: USA300. As to the method:
as §1

The test system of another series is S. aureus ATCC 33591. Kind of series: microbe, parasite or virus in culture. It counts as cell-based, Staphylococcus aureus. To be noted: ATCC 33591. As to the method: as §1
The subject of another series is G. mellonella larvae. Details: species or system Galleria mellonella. To be noted: in vivo. On the procedure: All procedures of larvae rearing, injection and G. mellonella killing assays were conducted using validated methods. In each assay, ten larvae weighing between 280–300 mg each were randomly selected. Larvae with the previous melanisation of the cuticle were excluded from the experiments. All experiments were designed in at least four experimental and biological replicates.
Firstly, we evaluated the putative toxic effect of the peptides HG2 and HG4 in G. mellonella. […] After injection with peptides, the larvae were maintained at 37 °C in the dark. Phenotypic aspects such as melanisation and mobility of the larvae as well as survival were monitored every 24 for 96 h. Larvae not inoculated with AMPs were used as controls.

Series [2] concerns LPS-driven NF-kB activation, eLUCidate Raw 264.7 NF-kB reporter cell line. Kind of series: Anti-inflammatory activity, NF-kB luciferase reporter. The class given is cell-based, murine. To be noted: 10 ng/ml LPS from E. coli, 6 h. As to the method: (§2) The inhibitory activity of HG2, HG4 and comparator compounds against LPS and LTA was assessed using eLUCidate™ Raw 264.7 NF-kB reporter cell line (AMSBIO) as previously described. The eLUCidate NF-kB reporter cell line is a stably transfected Raw 264.7 cell line which expresses the Renilla luciferase reporter gene under the transcriptional control of the NF-kB response element, a key transcription factor involved in immune and inflammatory responses. This reporter cell line has been used to measure the induction of various toll-like receptors (TLR) by ligands, including LPS and LTA, therefore providing an effective way to evaluate inhibitors of their activations. Briefly, cells were grown and maintained following the manufacturer’s instructions in Dulbecco’s modified essential medium (DMEM) supplemented with 10% fetal calf serum (FCS), 1% L-glutamine, 1% antibiotics (Invitrogen) and containing 3 µg/ml of puromycin (Sigma-Aldrich, UK). To test the inhibitory activity of HG2 and HG4 on LPS or LTA-driven NF-kB activation, eLUCidate™ Raw 264.7 cells grown on 75 cm^2 flasks were detached using trypsin-EDTA solution (Thermofisher, UK) and seeded into 96-well cell culture plates (Greiner Bio-one, UK) at ~25,000 cells per well (counted using Mallasez’s chamber). The next day, wells were emptied, and cells were exposed to optimal concentrations of LPS or LTA determined from preliminary experiments, (i.e. 10 ng/ml of LPS from E. coli or 10 µg/ml of LTA from S. aureus (Invivogen, UK)) in the presence of increasing concentrations of HG2 or HG4 (from 0 to 500 µg/ml, serial 1:2 dilutions). Pyrrolidine dithiocarbamate (PDTC, 100 µM) and polymyxin B (PMB, 100 µM) (Sigma-Aldrich, UK) were used as positive controls based on their well-known activity as anti-inflammatory molecules and blockers/neutralisers of LPS and LTA, respectively. Importantly, all steps were performed using non-pyrogenic plastics and RNase/DNase molecular biology tips to limit the risk of the presence of a trace of LPS/LTA. After 6 h incubation at 37 °C and 5% CO2, wells were emptied, and the cells were treated with 70 µl of ice-cold PBS containing 1% Triton X-100. After 10 min incubation on ice under orbital shaking at 200 rpm, 50 µL of cell lysates were collected and transferred into white 96-well luminescence plates (Dominique Dutscher) already containing 100 µL of Renilla luciferase substrate (Yelen, France). Luminescence signals of the wells were immediately measured using a microplate reader (Biotek Synergy Mx, UK). The luminescence values were expressed as a percentage of control inflammation corresponding to values obtained after treatment with LPS or LTA in the absence of an inhibitor. The IC50 values of PDTC, PMB, HG2 or HG4 on LPS or LTA-mediated inflammation (i.e. the concentration of molecule causing a reduction of 50% of the luciferase’s induction caused by LPS or LTA) were calculated using GraphPad® Prism 7 software.
A general note: In a reporter assay the amount or activity of a reporter protein is the signal.

Series [3] deals with LTA-driven NF-kB activation, eLUCidate Raw 264.7 NF-kB reporter cell line. The description is as above. The following applies: 10 µg/ml LTA from S. aureus, 6 h. It counts as cell-based, murine. As to the method: as §2

As for `CC[C@H](C)[C@H](NC(=O)[C@H](CC(C)C)NC(=O)[C@H](CC(C)C)NC(=O)[C@H](C)NC(=O)CNC(=O)CNC(=O)[C@@H](NC(=O)[C@@H](NC(=O)[C@H](CC(C)C)NC(=O)[C@H](C)NC(=O)[C@H](CC(C)C)NC(=O)CNC(=O)[C@H](CC(C)C)NC(=O)[C@@H](N)C(C)C)[C@@H](C)CC)C(C)C)C(=O)N[C@@H](CCCCN)C(=O)N[C@@H](CCCCN)C(=O)N[C@@H](CCCCN)C(=O)N[C@@H](CCC(N)=O)C(=O)N[C@@H](C)C(=O)N[C@@H](CCCCN)C(=O)N[C@@H](CO)C(N)=O` [HG4] (H-VLGLALIVGGALLIKKKQAKS-NH2; N-terminus and C-terminus assumed), the MIC in the series on E. coli K12 was 512 µg/mL (≈ 242 µM); against S. aureus EMRSA-15, 32 µg/mL (≈ 15.1 µM); in series [1] it was 32 µg/mL (≈ 15.1 µM); against S. aureus ATCC 33591 it was 32 µg/mL (≈ 15.1 µM). The “larvae survival rate, uninfected larvae” value with G. mellonella larvae stood at 100%. Moreover, the “toxic effect in G. mellonella” value with G. mellonella larvae is listed as “no toxic effect”. In series [2], the “IC50, LPS-mediated inflammation” value was 113.80 ± 5.00 µg/mL. The “IC50, LTA-mediated inflammation” value in series [3] came out at 26.45 ± 3.11 µg/mL.

For `CC[C@H](C)[C@H](NC(=O)[C@H](CC(C)C)NC(=O)[C@H](CC(C)C)NC(=O)[C@H](CC(C)C)NC(=O)[C@H](CCCCN)NC(=O)[C@H](CCCCN)NC(=O)[C@@H](N)CCSC)C(=O)N[C@@H](CC(C)C)C(=O)N[C@@H](Cc1ccccc1)C(=O)N[C@H]1CSSC[C@@H](C(=O)N[C@@H](CCCCN)C(=O)N[C@@H](CCCCN)C(=O)N[C@@H](C)C(=O)N2CCC[C@H]2C(N)=O)NC(=O)CNC(=O)[C@H](C)NC(=O)[C@H](CC(C)C)NC(=O)[C@H](C)NC(=O)[C@H](CC(C)C)NC(=O)[C@H](C)NC(=O)[C@H](CC(C)C)NC1=O` [HG2] (H-MKKLLLILFCLALALAGCKKAP-NH2; disulfide 10-18; N-terminus assumed), the MIC against E. coli K12 was 256 µg/mL (≈ 109 µM); in the series with S. aureus EMRSA-15, 32 µg/mL (≈ 13.6 µM); in series [1] it was 16 µg/mL (≈ 6.79 µM); in the series on S. aureus ATCC 33591 it was 64 µg/mL (≈ 27.2 µM). Further, the “larvae survival rate, uninfected larvae” value with G. mellonella larvae came out at 100%. In the series with G. mellonella larvae, the “toxic effect in G. mellonella” value is given as “no toxic effect”. Moreover, in series [2], the “IC50, LPS-mediated inflammation” value was 73.99 ± 3.40 µg/mL. Moreover, the “IC50, LTA-mediated inflammation” value in series [3] stood at 91.49 ± 6.03 µg/mL.

The values above are taken from article PMC9283466, “In silico identification of two peptides with antibacterial activity against multidrug-resistant Staphylococcus aureus” (NPJ Biofilms and Microbiomes, 2022).
